Data from patent publication US20250057985A1, “REEXPRESSION OF HNF4A TO ALLEVIATE CANCER-ASSOCIATED CACHEXIA” (YEDA RESEARCH AND DEVELOPMENT CO. LTD., priority 2022, published 2025).

What was measured:
[1] = target: T1, STAT3 (Mus musculus, UniProt P42227); assay: STAT3 inhibitor in IL-6-treated primary hepatocytes, OTC RT-PCR; format: cell-based; details: 10 μM inhibitor 30 min then IL-6 48 h
T1 construct: endogenous in cells; host or cells: primary mouse hepatocytes isolated by liver perfusion
T1 sequence (P42227 whole entry, the tested form may be a part): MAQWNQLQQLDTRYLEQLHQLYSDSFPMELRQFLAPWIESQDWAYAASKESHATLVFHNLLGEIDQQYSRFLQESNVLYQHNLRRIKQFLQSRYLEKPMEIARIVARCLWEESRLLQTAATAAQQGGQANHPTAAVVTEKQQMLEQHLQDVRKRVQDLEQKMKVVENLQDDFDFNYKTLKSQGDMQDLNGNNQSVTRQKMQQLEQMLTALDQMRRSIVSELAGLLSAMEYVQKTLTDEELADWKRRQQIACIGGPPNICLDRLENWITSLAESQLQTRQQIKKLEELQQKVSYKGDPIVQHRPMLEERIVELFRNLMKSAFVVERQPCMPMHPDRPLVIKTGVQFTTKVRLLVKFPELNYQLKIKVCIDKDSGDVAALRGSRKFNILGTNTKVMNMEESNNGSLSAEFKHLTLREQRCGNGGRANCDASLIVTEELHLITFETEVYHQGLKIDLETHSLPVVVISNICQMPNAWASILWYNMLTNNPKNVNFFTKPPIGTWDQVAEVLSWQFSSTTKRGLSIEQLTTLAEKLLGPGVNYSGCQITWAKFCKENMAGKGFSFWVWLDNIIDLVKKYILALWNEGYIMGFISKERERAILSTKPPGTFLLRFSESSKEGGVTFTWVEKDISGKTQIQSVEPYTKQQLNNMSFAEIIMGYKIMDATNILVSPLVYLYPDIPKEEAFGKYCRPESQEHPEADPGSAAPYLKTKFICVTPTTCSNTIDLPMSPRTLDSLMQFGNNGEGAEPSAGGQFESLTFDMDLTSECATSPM
Experimental: Primary hepatocytes culture: Following perfusion, 1×10^6 isolated hepatocytes were seeded in 3 ml Williams E+Glutamx-TM-1 in 6 well plate. Four hours after, the medium was aspirated, and the cells were washed with PBS and incubated with 2 ml Williams E+Glutamx-TM-1 overnight. Cells were treated with 10 μM of HJC0152 STAT3 inhibitor (Selleckchem #58561), for 30 minutes cells and then treated with 10 ng/ml recombinant mouse IL-6 (R&D #406-ML-005) for 48 h.
RNA processing and quantitative PCR: RNA was extracted from liver tissue by using QIAzol Lysis Reagent (according to QIAzol® Handbook) or by Direct-zol™ MiniPrep Plus Kit (Zymo Research ZR-R2070). For hepatocytes RNA sequencing, RNA was extracted from dissociated hepatocytes. Following liver perfusion as previously described, hepatocytes were resuspended in QIAzol and frozen in −80° C. RNA was extracted by using QIAzol Lysis Reagent. RNA from cultured primary hepatocytes was extracted by using RNeasy Mini Kit (QIAGENe #74104). To evaluate mtDNA copy number, total DNA was isolated using DNA purification kit (DNeasy Blood & Tissue Kits Qiagen #69504). cDNA was synthesized from […] RNA by using qScript cDNA Synthesis Kit (Quanta #95749). Detection on cDNAs was performed using Syber Green Fast mix Perfect CT (Quantabio #95073) with the required primers (qPCR primer list—Table 1)

[2] = test system: CD8+ splenocytes; details: ex-vivo, 1 mM ammonia, WT mice
Experimental: Activation of T cells from mice spleens: 10 weeks old WT female Balb/c mice were sacrificed and spleen harvested into cold-PBS on ice. Spleens were homogenized by syringe plunger through 70 uM strainer and washed with PBS. Following centrifugation at 1200 rpm for 5 min pellets were treated with RBC lysis buffer according to the manufacturer's instruction. Cells were resuspended in 2×10^6 cells/ml in splenocytes medium (complete RPMI medium supplemented with 50 μM β-mercaptoethanol, […] and Non-essential amino acids) supplemented with 6,000 IU/mL IL-2 (Chiron, rhIL2) and seeded in 24 well plates pre-coated with CD3 (BLG #100302). Following 72 h, cells were collected, centrifuged at 1200 rpm for 5 min, washed with splenocytes medium×2, and analyzed using CytoFLEX (Beckman Coulter) FACS analyzer.

[3] = test system: primary hepatocytes; assay: IL-6 supplementation of primary hepatocytes, RT-PCR; format: cell-based, mouse
Experimental: Liver Perfusions and hepatocytes dissociation: Livers of anaesthetized mice were perfused, with specific adjustments. The vena cava was inserted with 27 G syringe, fixed on the perfusion line. 10 ml of pre-warmed to 42° C. PPML buffer followed by 25 ml of pre-warmed to 42′C PM buffer with Liberase (Roche, cat #05401127001) were perfused through the vena cava. Immediately at the beginning of the perfusion, the portal vein was cut. Following perfusion of 25 ml of PM buffer and Liberase solution, livers were harvested into a Petri dish with 10 ml of pre-warmed PM buffer and chopped by forceps. Dissociated liver cells were collected and filtered through a slanted 100 um cell strainer. Cells were spin down at 30 g for 3 min at 4° C. to get hepatocytes enriched pellet. Pellet was resuspended in […] cold PM buffer. To enrich live hepatocytes, 21.6 ml cold Percoll (G.E. Healthcare #17-0891-01) mixed with +2.4 ml DPBSX10+CaCl2)+MgCl2 was added to the cells. Cells were centrifuged at 600 rpm for 10 minutes at 4° C. Supernatant containing the dead cells was aspirated, and cells were resuspended in 25 ml of cold Williams E+Glutamx-TM-1 (Gibco, cat #32551, 1% penstrep, 1% FBS, 1% L-Glutamine). […]
RNA processing and quantitative PCR: RNA was extracted from liver tissue by using QIAzol Lysis Reagent (according to QIAzol® Handbook) or by Direct-zol™ MiniPrep Plus Kit (Zymo Research ZR-R2070). […]

Molecule: NCCOc1ccc(Cl)cc1C(=O)Nc1ccc([N+](=O)[O-])cc1Cl [HJC0152]
- OTC expression levels in the presence of IL-6 [1]: rescued
- OTC expression levels in the presence of IL-6 ([1]; listed as HJCO152): restores

Molecule: N [ammonia]
- activation of T-cells splenocytes [2]: reduced
- survival of T-cells splenocytes [2]: reduced

B1: IL-6: recombinant mouse IL-6 (R&D #406-ML-005) (protein, UniProt P08505 25-211, looked up)
Interleukin-6: FPTSQVRRGDFTEDTTPNRPVYTTSQVGGLITHVLWEIVEMRKELCNGNSDCMNNDDALAENNLKLPEIQRNDGCYQTGYNQEICLLKISSGLLEYHSYLEYMKNNLKDNKKDKARVLQRDTETLIHIFNQEVKDLHKIVLPTPISNALLTDKLESQKEWLRTKTIQFILKSLEEFLKVTLRSTRQT
- RNA expression levels of OTC ([3]; 10 ng/ml recombinant mouse IL-6, 48 h): decreased
- CCL2 RNA levels ([3]; IL-6 supplementation): increased
